Data published in patent US8952024B2, “Herbicidal pyrimidone derivatives” (E I du Pont de Nemours and Company, priority 2009, dated 2015).

What was measured:
Assay in all cases: Test B pre-/postemergence plant response
Type in all cases: in vivo
[1] = test system: goosegrass (Eleusine indica)
Summary of the method: (§1)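 Greenhouse herbicide screen. Pre- and postemergence (1- to 4-leaf) spray of compound in solvent/surfactant mixture; loam–sand soil for pre, peat/vermiculite medium for post. Visual control rating 0–100 at 13 to 15 days after treatment.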

[2] = test system: morningglory (Ipomoea coccinea)
Summary of the method: as §1

[3] = test system: Italian ryegrass (Lolium multiflorum)
Summary of the method: as §1

[4] = test system: bermudagrass (Cynodon dactylon)
Summary of the method: as §1

[5] = test system: green foxtail (Setaria viridis)
Summary of the method: as §1

[6] = test system: large crabgrass (Digitaria sanguinalis)
Summary of the method: as §1

[7] = test system: downy bromegrass (Bromus tectorum)
Summary of the method: as §1

[8] = test system: ragweed (common ragweed, Ambrosia elatior)
Summary of the method: as §1

[9] = test system: yellow nutsedge (Cyperus esculentus)
Summary of the method: as §1

[10] = test system: johnsongrass (Sorghum halepense)
Summary of the method: as §1

corn (Zea mays) = test system: corn (Zea mays)
Summary of the method: as §1

[11] = test system: giant foxtail (Setaria faberii)
Summary of the method: as §1

[12] = test system: woolly cupgrass (Eriochloa villosa)
Summary of the method: as §1

[13] = Postemergence, 31 g ai/ha, 0 to 100 scale (0 no effect, 100 complete control)
[14] = Postemergence, 62 g ai/ha, scale 0 to 100 (0 no effect, 100 complete control)
[15] = Postemergence, 125 g ai/ha, scale 0 to 100 (0 no effect, 100 complete control)
[16] = Postemergence, 250 g ai/ha, scale 0 to 100 (0 no effect, 100 complete control), 13 to 15 days
[17] = 16 g ai/ha, Postemergence, 0 to 100 scale
[18] = 31 g ai/ha, postemergence, scale 0 to 100, 0 is no effect, 100 is complete control
[19] = 250 g ai/ha, Preemergence, 0 to 100 scale
[20] = Postemergence, 62 g ai/ha, scale 0 (no effect) to 100 (complete control), 13 to 15 days
[21] = Postemergence, 125 g ai/ha, visual rating after 13 to 15 days, scale 0 (no effect) to 100 (complete control)
[22] = Postemergence, 250 g ai/ha, scale 0 to 100 (0 no effect, 100 complete control)
[23] = Preemergence, 31 g ai/ha, scale 0 to 100 (0 no effect, 100 complete control)
[24] = Preemergence, 62 g ai/ha, scale 0 to 100 (0 no effect, 100 complete control)
[25] = Preemergence, 125 g ai/ha, scale 0 to 100, 0 no effect, 100 complete control

COCCn1c(-c2cccc(C)c2)ncc(C(=O)C2=C(O)C3CCC(C3)C2=O)c1=O (centres unmarked) [Compound 233]
Plant response rating, Goosegrass [1, 13]: 85
Plant response rating, Goosegrass [1, 14]: 95
Plant response rating, Goosegrass [1, 15]: 98
Plant response rating, Goosegrass [1, 16]: 98
Plant response rating, Morningglory [2, 13]: 65
Plant response rating, Morningglory [2, 14]: 80
Plant response rating, Morningglory [2, 15]: 98
Plant response rating, Morningglory [2, 16]: 100
Plant response rating, Ryegrass, Italian [3, 13]: 30
Plant response rating, Ryegrass, Italian [3, 14]: 45
Plant response rating, Ryegrass, Italian [3, 16]: 60
Plant response rating, Bermudagrass [4, 13]: 95
Plant response rating, Bermudagrass [4, 14]: 95
Plant response rating, Bermudagrass [4, 15]: 100
Plant response rating, Bermudagrass [4, 16]: 100
Plant response rating, Foxtail, Green [5, 13]: 85
Plant response rating, Foxtail, Green [5, 14]: 90
Plant response rating, Foxtail, Green [5, 15]: 95
Plant response rating, Foxtail, Green [5, 16]: 100
Plant response rating, Crabgrass, Large [6, 13]: 80
Plant response rating, Crabgrass, Large [6, 14]: 90
Plant response rating, Crabgrass, Large [6, 15]: 98
Plant response rating, Crabgrass, Large [6, 16]: 100
Plant response rating, Bromegrass, Downy [7, 13]: 40
Plant response rating, Bromegrass, Downy [7, 14]: 40
Plant response rating, Bromegrass, Downy [7, 15]: 50
Plant response rating, Bromegrass, Downy [7, 16]: 60
Plant response rating, Ragweed [8, 13]: 80
Plant response rating, Ragweed [8, 14]: 85
Plant response rating, Ragweed [8, 16]: 98
Plant response rating, Nutsedge, Yellow [9, 13]: 0
Plant response rating, Nutsedge, Yellow [9, 14]: 5
Plant response rating, Nutsedge, Yellow [9, 15]: 25
Plant response rating, Nutsedge, Yellow [9, 16]: 25
Plant response rating, Johnsongrass [10, 13]: 0
Plant response rating, Johnsongrass [10, 14]: 5
Plant response rating, Johnsongrass [10, 15]: 25
Plant response rating, Johnsongrass [10, 16]: 25
Plant response rating, Corn (corn (Zea mays); [13]): 30
Plant response rating, Corn (corn (Zea mays); [14]): 50
Plant response rating, Corn (corn (Zea mays); [15]): 85
Plant response rating, Corn (corn (Zea mays); [16]): 85
Plant response rating, Foxtail, Giant [11, 13]: 90
Plant response rating, Foxtail, Giant [11, 14]: 95
Plant response rating, Foxtail, Giant [11, 15]: 98
Plant response rating, Foxtail, Giant [11, 16]: 98
Plant response rating, Cupgrass, Woolly [12, 13]: 80
Plant response rating, Cupgrass, Woolly [12, 14]: 85
Plant response rating, Cupgrass, Woolly [12, 15]: 100
Plant response rating, Cupgrass, Woolly [12, 16]: 100

CC1(C)CC(=O)C(C(=O)c2cnc(-c3ccccc3)n(-c3ccccc3)c2=O)=C(O)C1 [Compound 225]
Plant response rating, Goosegrass [1, 17]: 80
Plant response rating, Goosegrass [1, 13]: 85
Plant response rating, Goosegrass [1, 14]: 90
Plant response rating, Goosegrass [1, 15]: 95
Plant response rating, Morningglory [2, 17]: 80
Plant response rating, Morningglory [2, 13]: 95
Plant response rating, Morningglory [2, 14]: 95
Plant response rating, Morningglory [2, 15]: 95
Plant response rating, Ryegrass, Italian [3, 17]: 0
Plant response rating, Ryegrass, Italian [3, 13]: 0
Plant response rating, Ryegrass, Italian [3, 14]: 35
Plant response rating, Bermudagrass [4, 17]: 40
Plant response rating, Bermudagrass [4, 13]: 80
Plant response rating, Bermudagrass [4, 14]: 85
Plant response rating, Bermudagrass [4, 15]: 85
Plant response rating, Foxtail, Green [5, 17]: 85
Plant response rating, Foxtail, Green [5, 13]: 85
Plant response rating, Foxtail, Green [5, 14]: 98
Plant response rating, Foxtail, Green [5, 15]: 98
Plant response rating, Crabgrass, Large [6, 17]: 70
Plant response rating, Crabgrass, Large [6, 13]: 75
Plant response rating, Crabgrass, Large [6, 14]: 85
Plant response rating, Crabgrass, Large [6, 15]: 95
Plant response rating, Bromegrass, Downy [7, 17]: 30
Plant response rating, Bromegrass, Downy [7, 13]: 35
Plant response rating, Bromegrass, Downy [7, 14]: 70
Plant response rating, Bromegrass, Downy [7, 15]: 85
Plant response rating, Ragweed [8, 17]: 70
Plant response rating, Ragweed [8, 13]: 75
Plant response rating, Ragweed [8, 14]: 80
Plant response rating, Nutsedge, Yellow [9, 17]: 5
Plant response rating, Nutsedge, Yellow [9, 13]: 10
Plant response rating, Nutsedge, Yellow [9, 14]: 25
Plant response rating, Nutsedge, Yellow [9, 15]: 25
Plant response rating, Johnsongrass [10, 17]: 20
Plant response rating, Johnsongrass [10, 13]: 60
Plant response rating, Johnsongrass [10, 14]: 75
Plant response rating, Johnsongrass [10, 15]: 75
Plant response rating, Corn (corn (Zea mays); [17]): 10
Plant response rating, Corn (corn (Zea mays); [13]): 40
Plant response rating, Corn (corn (Zea mays); [14]): 50
Plant response rating, Corn (corn (Zea mays); [15]): 70
Plant response rating, Foxtail, Giant [11, 17]: 75
Plant response rating, Foxtail, Giant [11, 13]: 75
Plant response rating, Foxtail, Giant [11, 14]: 80
Plant response rating, Foxtail, Giant [11, 15]: 85
Plant response rating, Cupgrass, Woolly [12, 17]: 70
Plant response rating, Cupgrass, Woolly [12, 13]: 75
Plant response rating, Cupgrass, Woolly [12, 14]: 75
Plant response rating, Cupgrass, Woolly [12, 15]: 85

CCCCc1ncc(C(=O)C2=C(O)CCCC2=O)c(=O)n1-c1cccc(C)c1 [Compound 63]
Plant response rating, Goosegrass [1, 18]: 70
Plant response rating, Goosegrass [1, 19]: 100
Plant response rating, Goosegrass [1, 20]: 70
Plant response rating, Goosegrass [1, 21]: 70
Plant response rating, Goosegrass [1, 22]: 75
Plant response rating, Goosegrass [1, 23]: 90
Plant response rating, Goosegrass [1, 24]: 98
Plant response rating, Goosegrass [1, 25]: 100
Plant response rating, Morningglory [2, 20]: 70
Plant response rating, Morningglory [2, 21]: 75
Plant response rating, Morningglory [2, 22]: 75
Plant response rating, Morningglory [2, 23]: 0
Plant response rating, Morningglory [2, 24]: 0
Plant response rating, Morningglory [2, 25]: 0
Plant response rating, Ryegrass, Italian [3, 18]: 0
Plant response rating, Ryegrass, Italian [3, 20]: 0
Plant response rating, Ryegrass, Italian [3, 21]: 0
Plant response rating, Ryegrass, Italian [3, 22]: 10
Plant response rating, Ryegrass, Italian [3, 23]: 0
Plant response rating, Ryegrass, Italian [3, 24]: 0
Plant response rating, Ryegrass, Italian [3, 25]: 0
Plant response rating, Bermudagrass [4, 19]: 98
Plant response rating, Bermudagrass [4, 20]: 85
Plant response rating, Bermudagrass [4, 21]: 85
Plant response rating, Bermudagrass [4, 22]: 95
Plant response rating, Bermudagrass [4, 23]: 75
Plant response rating, Bermudagrass [4, 24]: 98
Plant response rating, Bermudagrass [4, 25]: 98
Plant response rating, Foxtail, Green [5, 18]: 60
Plant response rating, Foxtail, Green [5, 19]: 30
Plant response rating, Foxtail, Green [5, 20]: 70
Plant response rating, Foxtail, Green [5, 21]: 70
Plant response rating, Foxtail, Green [5, 22]: 90
Plant response rating, Foxtail, Green [5, 23]: 0
Plant response rating, Crabgrass, Large [6, 18]: 70
Plant response rating, Crabgrass, Large [6, 19]: 100
Plant response rating, Crabgrass, Large [6, 20]: 75
Plant response rating, Crabgrass, Large [6, 21]: 80
Plant response rating, Crabgrass, Large [6, 22]: 90
Plant response rating, Crabgrass, Large [6, 23]: 50
Plant response rating, Crabgrass, Large [6, 24]: 85
Plant response rating, Crabgrass, Large [6, 25]: 100
Plant response rating, Bromegrass, Downy [7, 18]: 10
Plant response rating, Bromegrass, Downy [7, 19]: 0
Plant response rating, Bromegrass, Downy [7, 20]: 20
Plant response rating, Bromegrass, Downy [7, 21]: 20
Plant response rating, Bromegrass, Downy [7, 22]: 40
Plant response rating, Bromegrass, Downy [7, 23]: 0
Plant response rating, Bromegrass, Downy [7, 24]: 0
Plant response rating, Bromegrass, Downy [7, 25]: 0
Plant response rating, Ragweed [8, 18]: 70
Plant response rating, Ragweed [8, 20]: 75
Plant response rating, Ragweed [8, 21]: 80
Plant response rating, Ragweed [8, 22]: 80
Plant response rating, Ragweed [8, 23]: 65
Plant response rating, Ragweed [8, 24]: 65
Plant response rating, Ragweed [8, 25]: 70
Plant response rating, Nutsedge, Yellow [9, 18]: 20
Plant response rating, Nutsedge, Yellow [9, 20]: 20
Plant response rating, Nutsedge, Yellow [9, 21]: 50
Plant response rating, Nutsedge, Yellow [9, 22]: 60
Plant response rating, Nutsedge, Yellow [9, 23]: 10
Plant response rating, Nutsedge, Yellow [9, 24]: 15
Plant response rating, Nutsedge, Yellow [9, 25]: 25
Plant response rating, Johnsongrass [10, 19]: 60
Plant response rating, Johnsongrass [10, 20]: 10
Plant response rating, Johnsongrass [10, 21]: 10
Plant response rating, Johnsongrass [10, 22]: 15
Plant response rating, Johnsongrass [10, 23]: 0
Plant response rating, Johnsongrass [10, 24]: 0
Plant response rating, Johnsongrass [10, 25]: 55
Plant response rating, Corn (corn (Zea mays); [19]): 0
Plant response rating, Corn (corn (Zea mays); [20]): 20
Plant response rating, Corn (corn (Zea mays); [21]): 25
Plant response rating, Corn (corn (Zea mays); [22]): 45
Plant response rating, Corn (corn (Zea mays); [23]): 0
Plant response rating, Corn (corn (Zea mays); [24]): 0
Plant response rating, Corn (corn (Zea mays); [25]): 0
Plant response rating, Foxtail, Giant [11, 18]: 60
Plant response rating, Foxtail, Giant [11, 19]: 10
Plant response rating, Foxtail, Giant [11, 20]: 65
Plant response rating, Foxtail, Giant [11, 21]: 65
Plant response rating, Foxtail, Giant [11, 22]: 80
Plant response rating, Foxtail, Giant [11, 23]: 0
Plant response rating, Foxtail, Giant [11, 24]: 0
Plant response rating, Foxtail, Giant [11, 25]: 0
Plant response rating, Cupgrass, Woolly [12, 18]: 50
Plant response rating, Cupgrass, Woolly [12, 19]: 10
Plant response rating, Cupgrass, Woolly [12, 20]: 60
Plant response rating, Cupgrass, Woolly [12, 21]: 65
Plant response rating, Cupgrass, Woolly [12, 22]: 65
Plant response rating, Cupgrass, Woolly [12, 23]: 0
Plant response rating, Cupgrass, Woolly [12, 24]: 0
Plant response rating, Cupgrass, Woolly [12, 25]: 0
